# Measured values from patent US9340590B2 (priority 2011, dated 2016).
# Positions of bridges follow the written chain, without caps; N, C: chain ends. Non-standard residues stand in square brackets, D forms with d. Residues, ends and D or L forms follow the SMILES beside them. 1Nal = N[C@@H](Cc1cccc2ccccc12)C(=O)O
# Molecular target: hNav1.7 (Homo sapiens, UniProt Q15858)
# Assay: cell-based
# Conditions: read-out: Nav1.7 Use IC50
# Sequence of hNav1.7 (Q15858 whole entry, looked up): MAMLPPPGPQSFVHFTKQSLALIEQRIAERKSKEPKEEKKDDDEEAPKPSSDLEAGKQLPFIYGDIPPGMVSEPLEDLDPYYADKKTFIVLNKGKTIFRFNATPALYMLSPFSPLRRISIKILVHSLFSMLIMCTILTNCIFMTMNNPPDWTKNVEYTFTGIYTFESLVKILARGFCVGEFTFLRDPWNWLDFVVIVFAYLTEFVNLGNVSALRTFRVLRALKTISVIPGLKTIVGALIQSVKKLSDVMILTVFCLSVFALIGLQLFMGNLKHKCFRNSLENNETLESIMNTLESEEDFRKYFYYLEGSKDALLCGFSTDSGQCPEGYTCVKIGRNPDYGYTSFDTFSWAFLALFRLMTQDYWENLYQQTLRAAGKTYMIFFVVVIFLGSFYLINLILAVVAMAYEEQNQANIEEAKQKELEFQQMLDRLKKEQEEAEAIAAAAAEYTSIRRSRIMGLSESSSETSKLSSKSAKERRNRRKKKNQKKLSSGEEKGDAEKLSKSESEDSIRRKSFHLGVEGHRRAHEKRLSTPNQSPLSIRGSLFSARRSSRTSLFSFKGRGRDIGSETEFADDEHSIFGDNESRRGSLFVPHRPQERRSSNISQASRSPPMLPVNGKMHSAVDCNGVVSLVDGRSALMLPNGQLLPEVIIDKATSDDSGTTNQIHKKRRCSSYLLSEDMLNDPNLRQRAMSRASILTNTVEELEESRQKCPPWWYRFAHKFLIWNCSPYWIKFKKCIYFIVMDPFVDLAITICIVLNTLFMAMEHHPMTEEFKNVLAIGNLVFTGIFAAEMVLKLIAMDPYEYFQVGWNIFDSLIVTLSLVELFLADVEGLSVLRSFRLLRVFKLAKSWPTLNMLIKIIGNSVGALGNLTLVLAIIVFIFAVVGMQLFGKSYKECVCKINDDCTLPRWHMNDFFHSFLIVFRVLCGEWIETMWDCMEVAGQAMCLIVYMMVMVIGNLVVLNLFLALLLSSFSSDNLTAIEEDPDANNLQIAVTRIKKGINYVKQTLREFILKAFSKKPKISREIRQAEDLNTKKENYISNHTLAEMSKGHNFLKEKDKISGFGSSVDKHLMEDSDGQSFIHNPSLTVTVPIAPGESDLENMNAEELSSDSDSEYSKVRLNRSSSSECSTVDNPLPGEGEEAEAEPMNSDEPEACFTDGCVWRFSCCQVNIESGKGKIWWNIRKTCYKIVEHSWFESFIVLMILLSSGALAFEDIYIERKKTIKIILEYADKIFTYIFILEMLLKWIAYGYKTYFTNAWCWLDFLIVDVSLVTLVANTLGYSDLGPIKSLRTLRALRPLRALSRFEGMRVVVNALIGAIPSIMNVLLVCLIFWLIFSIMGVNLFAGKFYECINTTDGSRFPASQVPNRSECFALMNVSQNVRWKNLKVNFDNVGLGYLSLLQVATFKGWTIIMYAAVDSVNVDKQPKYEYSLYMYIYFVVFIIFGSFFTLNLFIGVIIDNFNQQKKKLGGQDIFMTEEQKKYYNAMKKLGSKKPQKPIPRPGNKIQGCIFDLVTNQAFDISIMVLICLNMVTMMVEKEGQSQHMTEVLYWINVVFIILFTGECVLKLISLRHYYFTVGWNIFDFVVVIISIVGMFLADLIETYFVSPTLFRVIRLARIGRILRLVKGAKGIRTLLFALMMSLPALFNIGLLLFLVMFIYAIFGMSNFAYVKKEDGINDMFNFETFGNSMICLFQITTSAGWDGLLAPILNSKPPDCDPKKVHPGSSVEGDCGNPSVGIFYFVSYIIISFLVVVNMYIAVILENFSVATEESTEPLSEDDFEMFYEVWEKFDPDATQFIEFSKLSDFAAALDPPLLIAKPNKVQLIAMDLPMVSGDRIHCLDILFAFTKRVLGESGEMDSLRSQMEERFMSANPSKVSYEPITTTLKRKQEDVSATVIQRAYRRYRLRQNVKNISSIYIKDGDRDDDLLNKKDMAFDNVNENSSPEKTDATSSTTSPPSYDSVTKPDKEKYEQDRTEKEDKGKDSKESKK
row,Structure (SMILES),IC50 [nM]
1,"CC[C@H](C)[C@@H]1NC(=O)[C@@H]2CSSC[C@@H]3NC(=O)[C@H](C(C)C)NC(=O)[C@H](CC(C)C)NC(=O)[C@H](CC(N)=O)NC(=O)[C@@H]4CCCN4C(=O)[C@H](CCCNC(=N)N)NC(=O)[C@H](CSSC[C@H](NC(=O)[C@@H](N)CC(=O)O)C(=O)N[C@@H](CC(C)C)C(=O)NCC(=O)NCC(=O)N[C@@H](CCSC)C(=O)N[C@@H](CCCNC(=N)N)C(=O)N[C@@H](CCCCN)C(=O)N2)NC(=O)[C@H](CSSC[C@@H](C(=O)N[C@@H](CCCCN)C(=O)N[C@@H](Cc2ccc(O)cc2)C(=O)N[C@H](C(=O)N[C@@H](Cc2ccccc2)C(N)=O)C(C)C)NC(=O)[C@H](Cc2c[nH]c4ccccc24)NC(=O)[C@H](CCCCN)NC(=O)[C@H](Cc2c[nH]cn2)NC(=O)[C@H]([C@@H](C)O)NC(=O)[C@H](CCCNC(=N)N)NC(=O)[C@H](CO)NC3=O)NC(=O)[C@H](CCCCN)NC(=O)[C@H](CC(=O)O)NC(=O)[C@H](CC(N)=O)NC(=O)[C@H](CC(=O)O)NC(=O)[C@@H]2CCCN2C1=O [SEQ ID NO: 265] (H-DCLGGMRKCIPDNDKCCRPNLVCSRTHKWCKYVF-NH2; disulfide 2-17, 9-23, 16-30)",9
2,"CC[C@H](C)[C@@H]1NC(=O)[C@@H]2CSSC[C@@H]3NC(=O)[C@H](C(C)C)NC(=O)[C@H](CC(C)C)NC(=O)[C@H](CC(N)=O)NC(=O)[C@@H]4CCCN4C(=O)[C@H](CCCNC(=N)N)NC(=O)[C@H](CSSC[C@H](NC(=O)[C@@H](N)CC(=O)O)C(=O)N[C@@H](CC(C)C)C(=O)NCC(=O)N[C@@H](CCSC)C(=O)N[C@@H](CCSC)C(=O)N[C@@H](CCCNC(=N)N)C(=O)N[C@@H](CCCCN)C(=O)N2)NC(=O)[C@H](CSSC[C@@H](C(=O)N[C@@H](CCCCN)C(=O)N[C@@H](Cc2ccc(O)cc2)C(=O)N[C@H](C(=O)N[C@@H](Cc2ccccc2)C(N)=O)C(C)C)NC(=O)[C@H](Cc2c[nH]c4ccccc24)NC(=O)[C@H](CCCCN)NC(=O)[C@H](Cc2c[nH]cn2)NC(=O)[C@H]([C@@H](C)O)NC(=O)[C@H](CCCNC(=N)N)NC(=O)[C@H](CO)NC3=O)NC(=O)[C@H](CCCCN)NC(=O)[C@H](CC(=O)O)NC(=O)[C@H](CC(N)=O)NC(=O)[C@H](CC(=O)O)NC(=O)[C@@H]2CCCN2C1=O [SEQ ID NO: 268] (H-DCLGMMRKCIPDNDKCCRPNLVCSRTHKWCKYVF-NH2; disulfide 2-17, 9-23, 16-30)",2
3,"CC[C@H](C)[C@@H]1NC(=O)[C@@H]2CSSC[C@@H]3NC(=O)[C@H](C(C)C)NC(=O)[C@H](CC(C)C)NC(=O)[C@H](CC(N)=O)NC(=O)[C@@H]4CCCN4C(=O)[C@H](CCCNC(=N)N)NC(=O)[C@H](CSSC[C@H](NC(=O)[C@@H](N)CC(=O)O)C(=O)N[C@@H](CC(C)C)C(=O)NCC(=O)N[C@@H](Cc4ccccc4)C(=O)N[C@@H](CCSC)C(=O)N[C@@H](CCCNC(=N)N)C(=O)N[C@@H](CCCCN)C(=O)N2)NC(=O)[C@H](CSSC[C@@H](C(=O)N[C@@H](CCCCN)C(=O)N[C@@H](Cc2cccc4ccccc24)C(=O)N[C@H](C(=O)N[C@@H](Cc2ccccc2)C(N)=O)C(C)C)NC(=O)[C@H](Cc2c[nH]c4ccccc24)NC(=O)[C@H](CCCCN)NC(=O)[C@H](Cc2c[nH]cn2)NC(=O)[C@H]([C@@H](C)O)NC(=O)[C@H](CCCNC(=N)N)NC(=O)[C@H](CO)NC3=O)NC(=O)[C@H](CCCCN)NC(=O)[C@H](CC(=O)O)NC(=O)[C@H](CC(N)=O)NC(=O)[C@H](CC(=O)O)NC(=O)[C@@H]2CCCN2C1=O [[1-Nal32]GpTx-1(1-34)] (H-DCLGFMRKCIPDNDKCCRPNLVCSRTHKWCK[1Nal]VF-NH2; disulfide 2-17, 9-23, 16-30)",4
